Assay results as given in US20070010478A1 (priority 2005, published 2007).

Experiments:
P450 isoenzyme 3A4 = P450 isoenzyme 3A4 (Homo sapiens, UniProt P08684); settings: cited from earlier work
P-gp = target: T1, P-gp (Homo sapiens, UniProt P08183); assay: cellular P-gp function, DiOC2 accumulation assay with flow cytometry, in AML patients; type: in vivo; settings: circulating NK cells and leukemic blasts; 700 mg/day continuous iv infusion
T1 construct: endogenous in cells; host or cells: circulating NK cells and leukemic blasts of AML patients
T1 sequence (P08183 whole entry, the tested form may be a part): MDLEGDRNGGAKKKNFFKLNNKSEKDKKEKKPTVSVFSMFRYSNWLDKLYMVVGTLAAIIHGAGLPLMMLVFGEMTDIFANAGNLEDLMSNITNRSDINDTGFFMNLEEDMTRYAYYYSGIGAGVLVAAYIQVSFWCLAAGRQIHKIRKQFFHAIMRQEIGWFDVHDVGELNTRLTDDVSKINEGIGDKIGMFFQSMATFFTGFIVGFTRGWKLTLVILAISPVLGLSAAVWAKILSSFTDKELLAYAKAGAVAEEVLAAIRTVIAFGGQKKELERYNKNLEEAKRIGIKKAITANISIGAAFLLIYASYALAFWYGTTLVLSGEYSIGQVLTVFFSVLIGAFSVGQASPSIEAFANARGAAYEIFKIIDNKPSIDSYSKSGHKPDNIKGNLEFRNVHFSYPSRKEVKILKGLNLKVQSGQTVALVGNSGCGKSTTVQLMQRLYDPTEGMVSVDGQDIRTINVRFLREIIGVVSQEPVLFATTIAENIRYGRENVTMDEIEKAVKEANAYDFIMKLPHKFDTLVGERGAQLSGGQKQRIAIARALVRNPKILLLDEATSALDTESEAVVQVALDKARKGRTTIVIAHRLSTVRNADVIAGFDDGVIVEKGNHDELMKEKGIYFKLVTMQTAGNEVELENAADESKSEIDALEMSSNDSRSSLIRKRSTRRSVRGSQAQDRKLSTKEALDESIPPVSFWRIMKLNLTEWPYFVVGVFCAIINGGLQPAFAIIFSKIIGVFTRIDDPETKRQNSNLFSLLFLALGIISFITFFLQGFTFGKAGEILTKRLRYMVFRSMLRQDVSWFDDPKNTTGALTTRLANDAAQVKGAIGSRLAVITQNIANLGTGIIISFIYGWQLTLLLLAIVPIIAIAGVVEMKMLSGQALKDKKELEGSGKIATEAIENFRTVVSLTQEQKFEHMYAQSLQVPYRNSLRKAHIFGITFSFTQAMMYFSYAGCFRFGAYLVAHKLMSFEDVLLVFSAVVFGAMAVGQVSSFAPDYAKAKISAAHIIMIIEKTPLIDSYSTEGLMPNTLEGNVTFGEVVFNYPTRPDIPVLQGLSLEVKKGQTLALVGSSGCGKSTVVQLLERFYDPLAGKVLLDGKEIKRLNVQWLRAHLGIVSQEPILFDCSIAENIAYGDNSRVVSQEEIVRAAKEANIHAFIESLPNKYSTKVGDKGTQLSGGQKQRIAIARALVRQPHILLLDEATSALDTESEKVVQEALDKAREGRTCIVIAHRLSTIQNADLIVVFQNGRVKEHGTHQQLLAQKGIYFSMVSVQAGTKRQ
Method: Cytarabine was also administered (100 mg/m^2/day) starting after the first dose of daunorubicin as a continuous intravenous infusion on days 1-7. Blood samples were taken at intervals for pharmacokinetic and pharmacodynamic studies. Pharmacokinetic drug determinations were conducted by HPLC. Pharmacodynamic assessments of cellular P-gp function were conducted using an accumulation assay with DiOC2 and flow cytometry. P-gp function was assessed on circulating natural killer (NK) cells and leukemic blasts. […] Means of 3 patients for each time point are shown.

P450 isoenzyme 3A4, sequence (P08684 whole entry, the tested form may be a part): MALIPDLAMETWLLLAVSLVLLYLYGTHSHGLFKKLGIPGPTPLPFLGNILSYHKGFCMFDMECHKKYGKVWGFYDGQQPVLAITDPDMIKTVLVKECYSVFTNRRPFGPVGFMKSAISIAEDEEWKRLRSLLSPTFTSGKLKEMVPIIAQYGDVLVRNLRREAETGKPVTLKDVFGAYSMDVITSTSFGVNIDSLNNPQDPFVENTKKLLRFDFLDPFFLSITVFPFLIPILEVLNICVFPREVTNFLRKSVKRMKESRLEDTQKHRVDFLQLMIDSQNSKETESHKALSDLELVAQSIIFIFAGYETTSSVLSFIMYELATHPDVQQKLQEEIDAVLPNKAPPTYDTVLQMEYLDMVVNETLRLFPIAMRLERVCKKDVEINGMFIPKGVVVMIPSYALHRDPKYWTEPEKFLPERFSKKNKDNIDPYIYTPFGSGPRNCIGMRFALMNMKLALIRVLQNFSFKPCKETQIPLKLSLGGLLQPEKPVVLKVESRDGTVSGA

SMILES | substrate for the P450 isoenzyme 3A4 (P450 isoenzyme 3A4) | time to potent inhibition of P-gp function after start of zosuquidar infusion (P-gp)
C/C=C/C[C@@H](C)C(=O)[C@H]1C(=O)N[C@@H](C(C)C)C(=O)N(C)CC(=O)N(C)[C@@H](CC(C)C)C(=O)N[C@@H](C(C)C)C(=O)N(C)[C@@H](CC(C)C)C(=O)N[C@@H](C)C(=O)N[C@H](C)C(=O)N(C)[C@@H](CC(C)C)C(=O)N(C)[C@@H](CC(C)C)C(=O)N(C)[C@@H](C(C)C)C(=O)N1C [valspodar] | substrates for the P450 isoenzyme 3A4 | –
COc1cc(C(=O)C(=O)N2CCCC[C@H]2C(=O)OC(CCCc2cccnc2)CCCc2cccnc2)cc(OC)c1OC [biricodar] | substrates for the P450 isoenzyme 3A4 | –
O[C@@H](COc1cccc2ncccc12)CN1CCN([C@@H]2c3ccccc3[C@@H]3[C@H](c4ccccc42)C3(F)F)CC1 [zosuquidar] | – | ≤ 2 h
